Format in all cases: in vivo
In data set [1] the test system is 3rd-instar larvae of Agrotis ipsilon (Rottemberg). The data set can be described thus: Joint toxicity of I-72 + SYP-1620, fludioxonil, insect-dipping, Example 80, Table 80. As for the experimental part:
(§1) Preparation of the pesticide solution: according to different test requirements, the test samples were accurately weighed respectively with an electronic analytical balance. The technical pesticides were dissolved in acetone, and then diluted with 0.1% Tween 80 water into a series of pesticide solutions with a certain concentration gradient according to the experimental design dosage.
(§2) The target insects were dipped into the pesticide solution for 10 s and then taken out. Excess pesticide solution was absorbed with filter paper. […] A treatment without the pesticide was set as the blank control.
(§3) The number of dead and live insects was investigated 72 hours later. The corrected mortality rate was calculated using the Abbott's formula, and statistical analysis was performed with the DPS data processing software to obtain the toxicity regression equation and LC50 value of each single test pesticide and each mixture of different ratios.

The test system of data set [2] is Unaspis yanonensis Kuwana nymphs. Description: Joint toxicity of I-72 + afidopyropen, Example 76, Table 76. The note with it: A = compound I-72, B = afidopyropen; citrus leaf dipping; 120 hours. The method, then:
Test target: Unaspis yanonensis Kuwana nymphs.
as §1
Experimental method: the activity of the mixture against Unaspis yanonensis Kuwana nymphs on citrus was determined by adopting the dipping method. First, the collected citrus leaves with Unaspis yanonensis Kuwana nymphs were treated with the pesticide solution in the order from low dosage to high dosage according to the experimental design. After air-drying, the petioles were kept moist with degreased cotton, and then the leaves were placed in a Petri dish, with 3 replicates for each treatment. In addition, a blank control was set up.
The treated test materials were placed in an observation room, and the temperature, humidity and illumination of the observation room could be adjusted as needed. The number of dead and live insects was investigated 120 hours later. […] Then, the co-toxicity coefficient of each ratio was calculated using the Sun Y-P method to evaluate the mixing effect (the same as in Example 1).

The subject of data set [3] is Frankliniella occidentalis nymphs. Description: whole plant or invertebrate. The note with it: in Phaseolus vulgaris, foliar, 48 h. As for the experimental part:
Test target: Frankliniella occidentalis nymphs.
as §1
Experimental method: first, kidney bean leaves were selected and dipped in the prepared pesticide solution for 10 s in the order from low dosage to high dosage according to the experimental design. After natural air-drying in the shade, they were placed in a 9-cm-diameter Petri dish with filter paper, and uniform and healthy test insects were introduced, with 20-30 insects for each treatment and 3 replicates for each treatment. In addition, a blank control was set up.
(§4) The treated test materials were placed in an observation room, and the temperature, humidity and illumination of the observation room could be adjusted as needed. The number of dead and live insects was investigated 48 hours later. […] Then, the co-toxicity coefficient of each ratio was calculated using the Sun Y-P method to evaluate the mixing effect (the same as in Example 1).

The subject of data set [4] is Thrips flavus Schrank nymphs. Description: Joint toxicity of I-72 + flonicamid, Example 78, Table 78. The conditions noted are these: A = compound I-72, B = flonicamid; eggplant seedling spraying; 48 hours. As for the experimental part:
Test target: Thrips flavus Schrank nymphs.
as §1
Experimental method: first, eggplant seedlings with Thrips flavus Schrank were selected, and the base number was counted. Then, uniform spraying was performed with the pesticide solution in the order from low to high doses according to the experimental design, with 2 mL for each seedling and 3 replicates for each treatment. In addition, a blank control was set up.
as §4

In data set [5] the test system is Aphis gossypii Glover nymphs. Description: Joint toxicity of I-72 + flonicamid, Example 74, Table 74. The conditions noted are these: A = compound I-72, B = flonicamid; cotton leaf spraying; 48 hours. The method, then:
Test target: Aphis gossypii Glover nymphs, a sensitive strain reared indoors.
as §1
Experimental method: first, cotton leaves with uniform and consistent Aphis gossypii were selected, with about 30-40 insects on each leaf. Then, they were evenly sprayed with the pesticide solution in the order from low dosage to high dosage according to the experimental design, with 1.5 mL for each leaf and 3 replicates for each treatment. In addition, a blank control was set up.
as §4

The subject of data set [6] is Nilaparvata lugens (Stal) nymphs. The data set can be described thus: Joint toxicity of I-72 + imidacloprid, Example 70, Table 70. The note with it: 72 h. The method, then:
(§5) Test target: Nilaparvata lugens (Stal) nymphs, a sensitive strain reared indoors.
as §1
(§6) Experimental method: the activity of the mixture against the Nilaparvata lugens (Stal) nymphs was determined by adopting the potted-seedling spraying method. First, rice seedlings were planted in culture pots. Uniform spraying was performed with the pesticide solution in the order from low dosage to high dosage according to the experimental design, with 2 mL for each seedling. Then, Nilaparvata lugens nymphs of uniform size were transferred onto the rice seedlings, with 3 replicates for each treatment. In addition, a blank control was set up.
(§7) The treated test materials were placed in an observation room, and the temperature, humidity and illumination of the observation room could be adjusted as needed. The number of dead and live insects was investigated 72 hours later. […] Then, the co-toxicity coefficient of each ratio was calculated using the Sun Y-P method to evaluate the mixing effect (the same as in Example 1).

Data set [7] concerns 3rd-instar larvae of Agrotis ipsilon (Rottemberg). The data set can be described thus: whole plant or invertebrate. The conditions noted are these: A = compound I-72, B = metalaxyl-M; insect-dipping; 72 hours. As for the experimental part: Test conditions: temperature: 24-26° C., humidity: RH 60%, and illumination: L:D=14:10
as §1, §2, §3

Data set [8] has as its system Aphis citricola van der Goot nymphs. The data set can be described thus: Joint toxicity of I-72 + nicotine, Example 72, Table 72. The conditions noted are these: A = compound I-72, B = nicotine, apple leaf spraying, 48 hours. As for the experimental part:
Test target: Aphis citricola van der Goot nymphs.
as §1
Experimental method: first, apple leaves with uniform and consistent Aphis citricola van der Goot were selected, with about 30-40 insects on each leaf. Then, they were evenly sprayed with the pesticide solution in the order from low dosage to high dosage according to the experimental design, with 1.5 mL for each leaf and 3 replicates for each treatment. In addition, a blank control was set up.
as §4

For data set [9], the system named is 3rd-instar larvae of Ostrinia furnacalis Guenee. Description: Joint toxicity of I-72 + pymetrozine, Example 79, Table 79. The conditions noted are these: in Zea mays, 72 h. As for the experimental part: Test target: 3rd-instar larvae of Ostrinia furnacalis Guenee.
as §1
Experimental method: first, tender corn stems were selected and dipped in the prepared pesticide solution for 10 s in the order from low dosage to high dosage according to the experimental design. After natural air-drying in the shade, they were placed in a 9-cm-diameter Petri dish with filter paper, and uniform and healthy test insects were introduced, with 10 insects for each treatment and 3 replicates for each treatment. In addition, a blank control was set up.
as §7

Data set [10] deals with Myzus persicae (Sulzer) nymphs. Description: Joint toxicity of I-72 + pymetrozine, Example 73, Table 73. The conditions noted are these: in Brassica oleracea, 48 h. As for the experimental part:
Test target: Myzus persicae (Sulzer) nymphs, a sensitive strain reared indoors.
as §1
Experimental method: first, cabbage leaves with uniform and consistent Myzus persicae (Sulzer) were selected, with about 30-40 insects on each leaf. Then, they were evenly sprayed with the pesticide solution in the order from low dosage to high dosage according to the experimental design, with 1.5 mL of the solution for each leaf and 3 replicates for each treatment. In addition, a blank control was set up.
The treated test materials were placed in an observation room, and the temperature, humidity and illumination of the observation room could be adjusted as needed. The number of dead and live insects was investigated 48 hours later. […] Then, the co-toxicity coefficient of each ratio was calculated using the Sun Y-P method to evaluate the mixing effect, as in Example 1.

Data set [11] deals with adult Bemisia tabaci (Gennadius). The data set can be described thus: Joint toxicity of I-72 + pyraclostrobin, cotton seedling spraying, Example 83, Table 83. The conditions noted are these: 72 h. As for the experimental part:
as §1
The corrected mortality rate was calculated using the Abbott's formula, and statistical analysis was performed with the DPS data processing software to obtain the toxicity regression equation and LC50 value of each single test pesticide and each mixture of different ratios.

Data set [12] relates to adult Tetranychus cinnabarinus (Boisduval). The data set can be described thus: Joint toxicity of I-72 + pyridaben, Example 84, Table 84. The note with it: 72 h. The method, then: Test target: adult Tetranychus cinnabarinus (Boisduval), a sensitive strain reared indoors.
as §1
Experimental method: the activity of the mixture against the adult Tetranychus cinnabarinus (Boisduval) was determined by adopting the potted-seedling spraying method. First, the adult Tetranychus cinnabarinus of uniform size were transferred onto the leaves of kidney bean seedlings at the stage when the first pair of true leaves was fully expanded. After the adult mites had stabilized, the base number was counted. Then, the uniform spraying was performed with the pesticide solution in the order from low to high dose according to the experimental design, with 1.5 mL for each seedling and 3 replicates for each treatment. […]
The treated test materials were placed in an observation room, and the temperature, humidity and illumination of the observation room could be adjusted as needed. […] Then, the co-toxicity coefficient of each ratio was calculated using the Sun Y-P method to evaluate the mixing effect, as in Example 1.

Data set [13] relates to Bemisia tabaci (Gennadius) nymphs. Description: Joint toxicity of I-72 + pyrifluquinazon, Example 77, Table 77. The note with it: A = compound I-72, B = pyrifluquinazon; cotton leaf-disk spraying; 96 hours. The method, then:
(§8) Test target: Bemisia tabaci (Gennadius) nymphs, a sensitive strain reared indoors.
as §1
(§9) Experimental method: first, cotton leaves with neat and consistent Bemisia tabaci (Gennadius) nymphs were selected and made into leaf disks, with about 20 insects on each leaf disk. Then, they were evenly sprayed with the pesticide solution in the order from low dosage to high dosage according to the experimental design, with 1.5 mL for each leaf and 3 replicates for each treatment. In addition, a blank control was set up.
(§10) The treated test materials were placed in an observation room, and the temperature, humidity and illumination of the observation room could be adjusted as needed. The number of dead and live insects was investigated 96 hours later. […] Then, the co-toxicity coefficient of each ratio was calculated using the Sun Y-P method to evaluate the mixing effect (the same as in Example 1).

The test system of data set [14] is Aphis craccivora nymphs. Description: whole plant or invertebrate. The note with it: in Vicia faba, 48 h. As for the experimental part: Test target: Aphis craccivora nymphs, a sensitive strain reared indoors.
as §1
Experimental method: first, broad bean seedlings with uniform and consistent Aphis craccivora were selected, with about 30-40 insects on each seedling. Then, they were evenly sprayed with the pesticide solution in the order from low dosage to high dosage according to the experimental design, with 1.5 mL of the solution for each leaf and 3 replicates for each treatment. In addition, a blank control was set up.
The treated test materials were placed in an observation room, and the temperature, humidity and illumination of the observation room could be adjusted as needed. The number of dead and live insects was investigated 48 hours later.

The subject of data set [15] is Bemisia tabaci (Gennadius) nymphs. Description: Joint toxicity of I-72 + thiacloprid, Example 71, Table 71. The note with it: in Gossypium hirsutum, 96 h. As for the experimental part: as §8, §1, §9, §10
In data set [16] the test system is Nilaparvata lugens (Stal) nymphs. The data set can be described thus: Joint toxicity of I-72 + triflumezopyrim, Example 75, Table 75. The conditions noted are these: A = compound I-72, B = triflumezopyrim; potted-seedling spraying; 72 hours. As for the experimental part: as §5, §1, §6, §7

Converted amounts (≈) assume the structure as drawn.

Turning to `CNC(=O)/C(=N/OC)c1ccccc1CO/N=C(C)/C=C/c1c(Cl)cccc1Cl` [SYP-1620], the LC50 in data set [1] (A = compound I-72, B = SYP-1620, 72 hours) is given as 361.2037 mg/L.

Regarding `C[C@]1(COC(=O)C2CC2)[C@@H]2C[C@H](O)[C@@]3(C)Oc4cc(-c5cccnc5)oc(=O)c4[C@H](O)[C@@H]3[C@@]2(C)CC[C@@H]1OC(=O)C1CC1` [afidopyropen], the LC50 in data set [2] came out at 2.8361 mg/L. Turning to `CN/C(=N/CC1CCOC1)N[N+](=O)[O-]` (centres unmarked) [dinotefuran], in data set [3], the LC50 came out at 75.3 µg/mL (≈ 372 µM). `N#CCNC(=O)c1cnccc1C(F)(F)F` [flonicamid]: the LC50 came out at 50.8013 mg/L in [4] and 2.3954 mg/L in [5]. Regarding `N#Cc1c[nH]cc1-c1cccc2c1OC(F)(F)O2` [fludioxonil], the LC50 in data set [1] (Agrotis ipsilon, A = compound I-72, B = fludioxonil, 72 hours, read-out: LC50) came to 391 mg/L. As for `O=[N+]([O-])NC1=NCCN1Cc1ccc(Cl)nc1` [imidacloprid], the LC50 in [6] is 4.9 µg/mL. Take `COCC(=O)N(c1c(C)cccc1C)[C@H](C)C(=O)OC` [metalaxyl-M]: the median lethal concentration (LC50) in [7] came to 401.2975 mg/L (≈ 1440 µM). For the molecule `CN1CCC[C@H]1c1cccnc1` [nicotine], the LC50 in data set [8] turned out to be 8.19 µg/mL. For `CC1=NNC(=O)N(/N=C/c2cccnc2)C1` [pymetrozine], the LC50 turned out to be 300 µg/mL in data set [9] and 5.51 µg/mL in data set [10]. Consider `COC(=O)N(OC)c1ccccc1COc1ccn(-c2ccc(Cl)cc2)n1` [pyraclostrobin], for which the LC50 in data set [11] came out at 424 µg/mL.

As for `CC(C)(C)c1ccc(CSc2cnn(C(C)(C)C)c(=O)c2Cl)cc1` [pyridaben], the LC50 in data set [12] was determined as 10.8 µg/mL. With `CC(=O)N1C(=O)N(NCc2cccnc2)Cc2cc(C(F)(C(F)(F)F)C(F)(F)F)ccc21` [pyrifluquinazon], the LC50 in data set [13] is reported as 10.6205 mg/L.

Regarding `CC(c1ccc(C(F)(F)F)nc1)S(C)(=O)=NC#N` (centres unmarked) [sulfoxaflor], the LC50 in data set [14] was determined as 0.197 µg/mL (≈ 0.709 µM). `N#C/N=C1\SCCN1Cc1ccc(Cl)nc1` [thiacloprid]: the LC50 in [15] was determined as 6.26 µg/mL. In the case of `O=c1c(-c2cccc(C(F)(F)F)c2)c([O-])[n+](Cc2cncnc2)c2ccccn12` [triflumezopyrim], in data set [16], the LC50 is recorded as 0.8838 mg/L.
